Measurements as given in article PMC6017286, “VSP-17, a New PPARγ Agonist, Suppresses the Metastasis of Triple-Negative Breast Cancer via Upregulating the Expression of E-Cadherin” (Molecules : A Journal of Synthetic Chemistry and Natural …, 2018).

Target: T1, PPARγ (Homo sapiens, UniProt P37231)
T1 construct: gene PPARG; GST-fused human PPARγ-LBD
T1 sequence (P37231 231-505 limits assumed): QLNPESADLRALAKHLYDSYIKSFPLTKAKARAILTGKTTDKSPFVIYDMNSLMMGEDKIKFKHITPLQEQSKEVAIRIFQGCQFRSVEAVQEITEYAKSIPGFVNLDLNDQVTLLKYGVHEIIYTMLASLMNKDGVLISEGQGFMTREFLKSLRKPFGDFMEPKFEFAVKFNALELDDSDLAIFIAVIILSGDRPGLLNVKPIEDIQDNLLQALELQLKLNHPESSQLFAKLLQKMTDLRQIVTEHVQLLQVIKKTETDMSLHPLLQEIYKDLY
Assay: LanthaScreen TR-FRET competitive binding assay (displacement of fluorescent PPAR ligand)

Ki: 270 nM
SMILES: O=C(NCc1ccncc1)c1ccc2c(ccn2Cc2ccc(C(F)(F)F)cc2)c1 [VSP-17]
